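Cells were grown in 96-well plates and exposed to each compound for 48 hours at five concentrations; endpoints were interpolated linearly between bracketing concentrations, or set to the highest concentration if not reached. Abbreviation: GI50, concentration required for 50% inhibition of growth. TGI: total growth inhibition.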
Legend:
Experiment in all cases: DTP human tumour cell line panel, 48 h
[1] = system: A498 renal
[2] = system: DU-145 prostate
[3] = system: HOP-92 NSCLC
[4] = system: IGROV1 ovarian
[5] = system: M14 melanoma
[6] = system: MDA-MB-435
[7] = system: NCI-H226 lung
[8] = system: SK-MEL-2 melanoma
[9] = system: SF-295 CNS
[10] = system: EKVX NSCLC

Row | Structure (SMILES) | GI50 [1] | TGI [1] | GI50 [2] | TGI [2] | GI50 [3] | TGI [3] | GI50 [4] | TGI [4] | GI50 [5] | TGI [5] | GI50 [6] | TGI [6] | GI50 [7] | TGI [7] | GI50 [8] | TGI [8] | GI50 [9] | TGI [9] | GI50 [10] | TGI [10]
1 | CC/C(=C(/c1ccc(OCCN(C)C)cc1)c1ccc(OC(=O)CCCCC(=O)c2c(C)[nH]c(/C=C3\N=C(c4ccc[nH]4)C=C3OC)c2C)cc1)c1ccccc1 | 12.8 µM | 26.1 µM | 7.73 µM | 21.1 µM | 1.12 µM | 6.28 µM | 13.3 µM | 46 µM | 1.84 µM | 4 µM | 7 µM | 46.1 µM | 14.2 µM | 34.3 µM | 16.7 µM | 33.5 µM | – | – | – | –
2 | CNCCCn1cc(C2=C(c3cn(C)c4ccccc34)C(=O)NC2=O)c2ccccc21 | 4.29 µM | 8.35 µM | 5.35 µM | 16.1 µM | 2.63 µM | 10.1 µM | 5.41 µM | 11.4 µM | 4.17 µM | 7.98 µM | 3.31 µM | 6.9 µM | 6.2 µM | 22.8 µM | 4.3 µM | 8.52 µM | 4.73 µM | 10.3 µM | – | –
3 | O=C1NC(=Nc2ccccc2)S/C1=C\c1ccc2ncccc2c1 | – | > 18.4 µM | > 25 µM | > 25 µM | > 25 µM | > 25 µM | > 7.5 µM | > 25 µM | > 25 µM | > 25 µM | 0.62 µM | 1.88 µM | > 25 µM | > 25 µM | > 17.9 µM | > 25 µM | – | > 7.02 µM | – | –
4 | C/C(=C\CCc1ccoc1)CC/C=C(\C)CCCC1=CC(=O)OC1 | 1.29 µM | 16.5 µM | 24.8 µM | > 100 µM | 2.09 µM | 13 µM | 19.5 µM | > 100 µM | 7.28 µM | 45 µM | 5.76 µM | 34.1 µM | 11 µM | 29.4 µM | 9.35 µM | 22.6 µM | 3.79 µM | 18 µM | – | –
5 | CC(SC(C)C(=O)N/N=C/c1cccc(Cl)c1)C(=O)N/N=C\c1cccc(Cl)c1 (stereo unspecified) | 14.6 µM | 32.2 µM | 6.58 µM | 25.2 µM | – | – | 18.4 µM | 69.3 µM | 14.1 µM | 35.5 µM | 5.02 µM | 23.9 µM | 17.5 µM | 43.1 µM | 6.9 µM | 25.3 µM | 14.1 µM | 35 µM | 13.3 µM | 59.7 µM
6 | CCCCc1c(OC)cc(O)c2c1C(=O)c1[nH]c(C(=O)O)c(O)c(=O)c1C2=O | – | – | – | > 100 µM | – | > 100 µM | – | 64.2 µM | – | 34.3 µM | – | > 100 µM | – | 23.6 µM | – | 4.3 µM | – | > 100 µM | – | > 100 µM
7 | Clc1ccc2c(NCCCNc3nccc(Nc4ccc(Br)cc4)n3)ccnc2c1 | 1.22 µM | 2.48 µM | 1.86 µM | 3.31 µM | 1.32 µM | 3.23 µM | – | – | 1.71 µM | 3.5 µM | 1.55 µM | 2.92 µM | 2.74 µM | 7.37 µM | 2.1 µM | 3.67 µM | 1.56 µM | 2.97 µM | – | –
8 | CCCCCCCCCC/C=C/CC(=O)SCCNC(=O)CCNC(=O)[C@@H](O)C(C)(C)COP(=O)(O)OP(=O)(O)OCC1OC(n2cnc3c(N)ncnc32)C(O)C1OP(=O)(O)O (stereo partly specified) | – | > 10 µM | – | > 10 µM | – | > 10 µM | – | > 10 µM | – | > 10 µM | – | > 10 µM | – | > 10 µM | – | – | – | > 10 µM | – | > 10 µM
9 | CCN1CCN(c2ccc(Nc3cc(N(C)C(=O)Nc4c(Cl)c(OC)cc(OC)c4Cl)ncn3)cc2)CC1 | < 0.0113 µM | 0.062 µM | 2.33 µM | 9.75 µM | 2.28 µM | 27.3 µM | 4.12 µM | 22.6 µM | 1.45 µM | 3.1 µM | 1.86 µM | 3.71 µM | – | – | 7.12 µM | 22.7 µM | 11.4 µM | 25.9 µM | – | –
10 | O=C(OCc1ccc2cccc(O)c2n1)N1CCN(C(=O)c2cc3cc(F)ccc3[nH]2)CC1 | 1.71 µM | 3.25 µM | 1.28 µM | 2.67 µM | 0.383 µM | 1.94 µM | 0.403 µM | 1.64 µM | 1.13 µM | 2.5 µM | 1.19 µM | 2.8 µM | – | – | 1.35 µM | 2.78 µM | 5.69 µM | 18.6 µM | 1.4 µM | 2.71 µM
11 | C=C(F)C(=O)N1CCN(c2nc(OC[C@@H]3CCCN3C)nc3c2CCN(c2cccc4cccc(Cl)c24)C3)C[C@@H]1CC#N | 1.39 µM | 2.86 µM | 1.04 µM | 2.87 µM | 0.437 µM | 1.85 µM | 1.31 µM | 3.2 µM | 1.06 µM | 2.34 µM | 0.961 µM | 2.22 µM | – | – | 1.4 µM | 2.8 µM | 1.48 µM | 3.13 µM | 1.93 µM | 7.53 µM
12 | O=S(=O)(Nc1cc(F)cc(Cl)c1)c1ccc(-c2cnc(C3CC3)o2)cc1 | – | – | 3.58 µM | 23.2 µM | 0.979 µM | 8.45 µM | 0.771 µM | 17.5 µM | 0.923 µM | 15.5 µM | 0.274 µM | 1.22 µM | 3.46 µM | 17.9 µM | 4.66 µM | 26.9 µM | 0.389 µM | 10.3 µM | 4.86 µM | 39.1 µM
13 | CCOc1nc(-c2ccccc2)cc2c(O)c(-c3nnco3)[nH]c(=O)c12 | 2.56 µM | 58 µM | 5.3 µM | > 100 µM | 1.24 µM | 6.97 µM | 3.63 µM | > 89.8 µM | 7.12 µM | > 100 µM | 8.48 µM | > 100 µM | 6.25 µM | > 100 µM | 9.4 µM | > 46.9 µM | 4.28 µM | > 54.4 µM | – | –
14 | Cn1cc(C2=C(c3ccc4ccccc4c3)C(=O)NC2=O)c2ccccc21 | > 25 µM | > 25 µM | > 25 µM | > 25 µM | > 25 µM | > 25 µM | > 19.5 µM | > 25 µM | > 21 µM | > 25 µM | 0.885 µM | > 13.6 µM | > 25 µM | > 25 µM | > 25 µM | > 25 µM | > 23.5 µM | > 25 µM | – | –

From PubChem BioAssay (NCI)
